# PubChem BioAssay (NCI)
#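 These data come from cells grown in 96-well plates and exposed to compound for 48 hours at five concentrations. GI50 marks 50% less growth. Definition used: TGI = concentration required for complete inhibition of growth.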
# Experiments:
# Test in all cases: inhibition of tumour cell growth, NCI panel, 48 h
# [1] = test system: SNB-75 CNS
# [2] = test system: U251 CNS
# [3] = test system: 786-0 renal
# [4] = test system: SN12C renal
# [5] = test system: HCC-2998 colon
# [6] = test system: ACHN renal
# [7] = test system: BT-549 breast
# [8] = test system: SW-620 colon
# [9] = test system: UACC-62 melanoma
# [10] = test system: HT29 colon
# [11] = test system: NCI/ADR-RES ovarian
# [12] = test system: HCT-15 colon
# [13] = test system: HOP-92 NSCLC
# [14] = test system: OVCAR-4 ovarian
# [15] = test system: NCI-H23 lung
# [16] = test system: SNB-19 CNS
# [17] = test system: IGROV1 ovarian
# [18] = test system: MCF7 breast
# [19] = test system: KM12 colon
# [20] = test system: MDA-MB-231 breast
# [21] = test system: SF-539 CNS
# [22] = test system: NCI-H522 lung
# [23] = test system: PC-3 prostate
# [24] = test system: EKVX NSCLC
# [25] = test system: TK-10 renal
# [26] = test system: MOLT-4 leukemia
# [27] = test system: HOP-62 NSCLC
# [28] = test system: COLO 205 colon
# [29] = test system: A549 NSCLC
# [30] = test system: OVCAR-5 ovarian
# [31] = test system: OVCAR-8 ovarian
# [32] = test system: M14 melanoma
# [33] = test system: NCI-H460 lung
# [34] = test system: CCRF-CEM leukemia
# [35] = test system: SK-OV-3 ovarian
# [36] = test system: SK-MEL-28 melanoma
# [37] = test system: T-47D breast
# [38] = test system: SF-268 CNS
# [39] = test system: NCI-H226 lung
# [40] = test system: SK-MEL-2 melanoma
# [41] = test system: CAKI-1 renal
# [42] = test system: A498 renal
# [43] = test system: HS 578T breast
# [44] = test system: UO-31 renal
# [45] = test system: SR leukemia
# [46] = test system: K-562 leukemia
# [47] = test system: LOX IMVI melanoma
# [48] = test system: SF-295 CNS
# [49] = test system: MDA-MB-435
# [50] = test system: HL-60(TB) leukemia
# [51] = test system: DU-145 prostate
# [52] = test system: MALME-3M melanoma
# [53] = test system: OVCAR-3 ovarian
# [54] = test system: RPMI-8226 leukemia
# [55] = test system: SK-MEL-5 melanoma
# [56] = test system: HCT-116 colon
smiles,measurement,setting,value
Nc1ncnc2nc(-c3ccc(C[P+](c4ccccc4)(c4ccccc4)c4ccccc4)cc3)[nH]c12,GI50,[1],57.7 µM
same,GI50,[2],32.7 µM
same,GI50,[3],48.2 µM
COc1cccc(-c2cc(=O)c3cc(N)ccc3[nH]2)c1,TGI,[4],> 100 µM
same,TGI,[5],48.6 µM
same,TGI,[6],> 100 µM
same,TGI,[7],> 100 µM
same,TGI,[8],> 100 µM
same,TGI,[9],> 100 µM
same,TGI,[10],18 µM
same,TGI,[11],11.9 µM
same,TGI,[12],> 100 µM
same,TGI,[1],> 100 µM
same,TGI,[13],59.7 µM
same,GI50,[14],82.3 µM
same,TGI,[14],> 100 µM
same,TGI,[15],> 100 µM
same,TGI,[16],> 100 µM
same,TGI,[17],> 100 µM
same,TGI,[18],> 100 µM
same,TGI,[19],> 100 µM
same,TGI,[20],> 100 µM
same,TGI,[21],5.2 µM
same,TGI,[22],7.56 µM
same,TGI,[23],> 100 µM
same,TGI,[2],> 100 µM
same,TGI,[24],> 100 µM
same,TGI,[25],> 100 µM
same,TGI,[26],> 100 µM
same,TGI,[27],> 100 µM
same,TGI,[28],> 100 µM
same,TGI,[3],> 100 µM
same,TGI,[29],> 100 µM
same,TGI,[30],> 100 µM
same,TGI,[31],> 100 µM
same,TGI,[32],> 100 µM
same,TGI,[33],> 100 µM
same,TGI,[34],> 100 µM
same,TGI,[35],6.79 µM
same,TGI,[36],> 100 µM
COc1nc(C)cc2c(=O)n(-c3ccccc3)n(CCCN3CCN(c4ccc(Cl)cc4)CC3)c(=O)c12,GI50,[4],> 50 µM
same,TGI,[4],> 50 µM
same,GI50,[5],> 50 µM
same,TGI,[5],> 50 µM
same,GI50,[37],> 50 µM
same,TGI,[37],> 50 µM
same,GI50,[6],> 50 µM
same,TGI,[6],> 50 µM
same,GI50,[38],37.7 µM
same,TGI,[38],> 50 µM
same,GI50,[8],43.8 µM
same,TGI,[8],> 50 µM
same,GI50,[39],> 50 µM
same,TGI,[39],> 50 µM
same,GI50,[40],> 50 µM
same,TGI,[40],> 50 µM
same,GI50,[9],39.9 µM
same,TGI,[9],> 50 µM
same,GI50,[41],38.2 µM
same,TGI,[41],> 50 µM
same,GI50,[10],> 50 µM
same,TGI,[10],> 50 µM
same,GI50,[11],> 50 µM
same,TGI,[11],> 50 µM
same,GI50,[12],> 50 µM
same,TGI,[12],> 50 µM
same,GI50,[1],14.1 µM
same,TGI,[1],47.6 µM
same,GI50,[13],10 µM
same,TGI,[13],41.6 µM
same,GI50,[42],> 50 µM
same,TGI,[42],> 50 µM
same,GI50,[43],27.4 µM
same,TGI,[43],> 50 µM
same,GI50,[14],17.6 µM
same,TGI,[14],> 50 µM
same,GI50,[15],> 50 µM
same,TGI,[15],> 50 µM
same,GI50,[44],31.9 µM
same,TGI,[44],> 50 µM
same,GI50,[16],18.8 µM
same,TGI,[16],> 50 µM
same,GI50,[17],> 50 µM
same,TGI,[17],> 50 µM
same,GI50,[18],37.7 µM
same,TGI,[18],> 50 µM
same,GI50,[45],> 50 µM
same,TGI,[45],> 50 µM
same,GI50,[19],> 50 µM
same,TGI,[19],> 50 µM
same,GI50,[20],39.5 µM
same,TGI,[20],> 50 µM
same,GI50,[46],35 µM
same,TGI,[46],> 50 µM
same,GI50,[21],> 50 µM
same,TGI,[21],> 50 µM
same,GI50,[22],28.6 µM
same,TGI,[22],> 50 µM
same,GI50,[47],> 50 µM
same,TGI,[47],> 50 µM
same,GI50,[23],15.3 µM
same,TGI,[23],> 50 µM
same,GI50,[48],29.2 µM
same,TGI,[48],> 50 µM
same,GI50,[2],32.1 µM
same,TGI,[2],> 50 µM
same,GI50,[49],> 50 µM
same,TGI,[49],> 50 µM
same,GI50,[24],> 50 µM
same,TGI,[24],> 50 µM
same,GI50,[25],> 50 µM
same,TGI,[25],> 50 µM
same,GI50,[50],> 50 µM
same,TGI,[50],> 50 µM
same,GI50,[26],> 50 µM
same,TGI,[26],> 50 µM
same,GI50,[51],> 50 µM
same,TGI,[51],> 50 µM
same,GI50,[27],24.5 µM
same,TGI,[27],> 50 µM
same,GI50,[28],> 50 µM
same,TGI,[28],> 50 µM
same,GI50,[3],31.2 µM
same,TGI,[3],> 50 µM
same,GI50,[52],> 50 µM
same,TGI,[52],> 50 µM
same,GI50,[53],24.6 µM
same,TGI,[53],> 50 µM
same,GI50,[29],21.2 µM
same,TGI,[29],> 50 µM
same,GI50,[30],> 50 µM
same,TGI,[30],> 50 µM
same,GI50,[32],46.6 µM
same,TGI,[32],> 50 µM
same,GI50,[54],> 50 µM
same,TGI,[54],> 50 µM
same,GI50,[33],24.6 µM
same,TGI,[33],> 50 µM
same,GI50,[35],32.8 µM
same,TGI,[35],> 50 µM
same,GI50,[36],> 50 µM
same,TGI,[36],> 50 µM
same,GI50,[55],16.9 µM
same,TGI,[55],> 50 µM
same,GI50,[56],27.5 µM
same,TGI,[56],> 50 µM
